From US20140220477A1, “Polymers, substrates, methods for making such, and devices comprising the same” (Avertica, Inc., priority 2013, published 2014)
Structures can show the parent of a compound that is named as a salt.

Target: T1, mushroom tyrosinase (polyphenol oxidase) Sigma T3824 (Agaricus bisporus, UniProt C7FF04)
T1 construct: purchased Sigma T3824
Experiment: Testing of polymer production in enzymatic tyrosinase (polyphenol oxidase) reaction
Assay type: biochemical
Design: key: +++: Reacted within about 1 hour; ++: reacted within about 3 hours; +: reacted within about 24 hours; +/−: inconclusive results; −: no reaction
Settings: approx. 50 mM potassium phosphate buffer pH 6.5, approx. 5 mM substrate, 100 to 10,000 units enzyme, observed over 24 hours
Description: All reactions were carried out in approximately 50 mM potassium phosphate buffer, pH 6.5 with approximately 5 mM substrate and mushroom tyrosinase (polyphenol oxidase) Sigma T3824 in an amount of 100 to 10,000 units. Reaction volumes varied from 200 μl to 2 ml. In cases where substrates were not completely solubilized, then a saturated solution was used as the limit of solubility. In some cases, a solution of DMSO was used to increase solubility of the substrates. The enzyme was tested and shown to retain activity up to 50% DMSO. The reactions were observed over a 24 hour period for the production of polymers, and the presence and color of polymer and solution was recorded.
The production of polymers in each reaction was visible as a precipitate in the well of a 96 well plate or in the reaction mixture on a glass slide.

T1 sequence (C7FF04 1-392 limits assumed): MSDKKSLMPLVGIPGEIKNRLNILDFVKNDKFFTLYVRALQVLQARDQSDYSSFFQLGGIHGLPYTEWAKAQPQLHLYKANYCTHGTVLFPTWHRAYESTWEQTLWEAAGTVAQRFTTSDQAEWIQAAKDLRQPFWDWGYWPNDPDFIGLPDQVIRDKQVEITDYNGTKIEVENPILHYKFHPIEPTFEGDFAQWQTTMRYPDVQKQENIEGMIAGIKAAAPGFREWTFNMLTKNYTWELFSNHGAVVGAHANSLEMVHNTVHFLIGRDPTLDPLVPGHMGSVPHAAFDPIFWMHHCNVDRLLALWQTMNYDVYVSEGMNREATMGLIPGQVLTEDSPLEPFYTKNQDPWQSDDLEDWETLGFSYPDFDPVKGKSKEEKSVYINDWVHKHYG

Compound	Result (polymer production in tyrosinase reaction)
Cl.NCCc1ccccc1 [Beta phenylethylamine HCL]	+/−
c1ccc2[nH]ccc2c1 [Indole]	−
Cl.NCCc1ccc(O)cc1 [Tyramine HCl]	+++ (Reacted within about 1 hour)
NCCc1ccc(O)cc1 [Tyramine]	+++ (Reacted within about 1 hour)

More lines, now with the values ahead:

Result (polymer production in tyrosinase reaction)	Compound
+ (reacted within about 24 hours)	Oc1ccc2cc(O)ccc2c1 [2,6 dihydroxnaphthalene]
+++ (Reacted within about 1 hour)	Oc1ccc2[nH]ccc2c1 [5-hydroxyindole]
++ (reacted within about 3 hours)	Oc1ccc2cc[nH]c2c1 [6 Hydroxyindole]
++ (reacted within about 3 hours)	CN[C@@H](Cc1ccc(O)cc1)C(=O)O [N-methyl tyrosine]
++ (reacted within about 3 hours)	N[C@@H](Cc1ccc(O)cc1)C(=O)O [Tyrosine]

Same assay, conditions: as above; marked substrate(s) dissolved in 20% DMSO

Result (polymer production in tyrosinase reaction)	Compound
+ (reacted within about 24 hours)	Oc1ccc(-c2cc(-c3ccc(O)cc3)cc(-c3ccc(O)cc3)c2)cc1 [1,3,5 Tris(4hydroxyphenyl)benzene]
−	Oc1ccc2c(c1)[nH]c1ccccc12 [2 Hydroxy carbazole]

Compound	Result (polymer production in tyrosinase reaction)
CC1=NCCc2c1[nH]c1cc(O)ccc21 [Harmalol HCl dehydrate]	−
